From patent publication US11613542B2, “Sulfonylureas and sulfonylthioureas as NLRP3 inhibitors” (Inflazome Limited, priority 2017, dated 2023)
Counter-ions that a name gives are not always drawn.

Key:
NLRP3 [1] = molecular target: T1, NLRP3 (Homo sapiens, UniProt Q96P20); test: Human whole blood IL1β release assay; assay type: cell-based; parameters: Human whole blood in Li-heparin tubes was obtained from healthy donors; from tissue; host or cells: human whole blood from healthy donors, LPS-primed, nigericin-stimulated
T1 sequence (Q96P20 whole entry): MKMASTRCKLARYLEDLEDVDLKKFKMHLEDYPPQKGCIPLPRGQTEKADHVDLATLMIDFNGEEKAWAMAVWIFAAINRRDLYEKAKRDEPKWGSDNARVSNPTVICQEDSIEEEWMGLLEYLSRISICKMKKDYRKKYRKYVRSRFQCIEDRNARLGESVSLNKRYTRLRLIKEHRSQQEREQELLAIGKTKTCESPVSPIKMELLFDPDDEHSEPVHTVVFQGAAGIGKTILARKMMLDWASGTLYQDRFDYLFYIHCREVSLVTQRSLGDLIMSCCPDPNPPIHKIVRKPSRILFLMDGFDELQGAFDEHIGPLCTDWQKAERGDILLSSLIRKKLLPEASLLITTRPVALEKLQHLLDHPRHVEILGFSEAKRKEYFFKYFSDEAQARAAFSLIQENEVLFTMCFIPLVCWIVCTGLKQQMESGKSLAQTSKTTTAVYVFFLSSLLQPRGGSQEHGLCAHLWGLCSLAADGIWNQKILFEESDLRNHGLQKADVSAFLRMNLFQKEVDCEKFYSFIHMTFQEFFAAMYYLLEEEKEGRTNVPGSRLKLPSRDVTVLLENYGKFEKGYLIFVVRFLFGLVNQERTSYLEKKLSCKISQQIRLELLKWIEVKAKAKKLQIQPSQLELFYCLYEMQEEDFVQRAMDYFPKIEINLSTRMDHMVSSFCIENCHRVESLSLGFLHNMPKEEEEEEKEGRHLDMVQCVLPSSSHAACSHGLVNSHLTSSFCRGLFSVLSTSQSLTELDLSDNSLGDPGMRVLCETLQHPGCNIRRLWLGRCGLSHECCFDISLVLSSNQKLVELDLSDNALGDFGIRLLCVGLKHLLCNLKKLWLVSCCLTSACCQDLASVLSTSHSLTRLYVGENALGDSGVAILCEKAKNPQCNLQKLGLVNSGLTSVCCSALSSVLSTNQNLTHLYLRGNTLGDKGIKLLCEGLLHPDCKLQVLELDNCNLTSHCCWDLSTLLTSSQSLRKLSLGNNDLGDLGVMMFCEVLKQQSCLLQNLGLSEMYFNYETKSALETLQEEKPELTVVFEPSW
Method: Human Whole Blood IL1β Release Assay
For systemic delivery, the ability to inhibit NLRP3 when the compounds are present within the bloodstream is of great importance. For this reason, the NLRP3 inhibitory activity of a number of compounds in human whole blood was investigated in accordance with the following protocol.
Human whole blood in Li-heparin tubes was obtained from healthy donors from a volunteer donor panel. • 1. Plate out 80 μl of whole blood containing 1 μg/ml of LPS in 96-well, clear bottom cell culture plate (Corning #3585) • 2. Add 10 μl compound (8 points half-log dilution with 10 μM top dose) or vehicle (DMSO 0.1% FAC) to the appropriate wells • 3. Incubate for 3 hrs at 37° C., 5% CO2 • 4. Add 10 μl Nigericin (Sigma #N7143) (10 μM FAC) to all wells • 5. Incubate for 1 hr at 37° C., 5% CO2 • 6. At the end of the incubation period, spin plates at 300 xg for 5 mins to pellet cells and remove 20 μl of supernatant and add to 96-well v-bottom plates for IL-1β analysis (note: these plates containing the supernatants can be stored at −80° C. to be analysed at a later date) • 7. IL-1β was measured according to the manufacturer protocol (Perkin Elmer-AlphaLisa IL-1 Kit AL220F-5000) • 8. IC50 data is fitted to a non-linear regression equation (log inhibitor vs response-variable slope 4-parameters)

NLRP3 [2] = molecular target: T1, NLRP3; test: THP-1 cells pyroptosis assay; assay type: cell-based; parameters: Seed THP-1 cells (25,000 cells/well) containing 1.0 μg/ml LPS; host or cells: THP-1 cells, LPS-primed, nigericin-stimulated
Outline: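 THP-1 cells (25,000/well) in serum-free RPMI with 1.0 μg/ml LPS, treated with compound (8-point half-log dilution, 10 μM top, 0.1% DMSO), then nigericin 5 μM final. Viability read by resazurin (100 μM final, 1-2 h, 37° C) fluorescence Ex 560/Em 590 nm; IC50 from 4-parameter variable-slope fit.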

[3] = human whole blood, 1 μg/ml LPS, compound 3 hrs, nigericin 10 μM 1 hr, IL-1β AlphaLisa, read-out: HWB IC50
[4] = THP-1 cells, 1.0 μg/ml LPS, compound 3 hrs, nigericin 5 μM 1 hr, resazurin readout, read-out: THP IC50

IC50 (NLRP3 [1]; [3]) | IC50 (NLRP3 [2]; [4]) | SMILES | IC50 (NLRP3 [1]) | IC50 (NLRP3 [2])
< 1600 nM | < 160 nM | CC(C)c1cccc(C(C)C)c1NC(=O)NS(=O)(=O)c1cc(C(=O)N(C)C2CC2)n(C)n1 [Example 143, N-Cyclopropyl-3-(N-((2,6-diisopropylphenyl)carbamoyl)sulfamoyl)-N,1-dimethyl-1H-pyrazole-5-carboxamide] |  | 
< 10000 nM | < 640 nM | CC(C)c1ccc(C(C)C)c(NC(=O)NS(=O)(=O)c2cc(C(=O)N(C)C)n(C)n2)c1 [Example 144, 3-(N-((2,5-Diisopropylphenyl)carbamoyl)sulfamoyl)-N,N,1-trimethyl-1H-pyrazole-5-carboxamide, sodium salt] |  | 
< 800 nM | < 160 nM | CC(C)c1cc(F)cc(C(C)C)c1NC(=O)NS(=O)(=O)c1cc(C(=O)N(C)C(C)C)n(C)n1 [Example 147, 3-(N-((4-Fluoro-2,6-diisopropylphenyl)carbamoyl)sulfamoyl)-N-isopropyl-N,1-dimethyl-1H-pyrazole-5-carboxamide] |  | 
< 800 nM | < 640 nM | CCN(C)C(=O)c1cc(S(=O)(=O)NC(=O)Nc2c(C(C)C)cc(F)cc2C(C)C)nn1C [Example 149, N-Ethyl-3-(N-((4-fluoro-2,6-diisopropylphenyl)carbamoyl)sulfamoyl)-N,1-dimethyl-1H-pyrazole-5-carboxamide, sodium salt] |  | 
< 400 nM | < 640 nM | CNC(=O)c1cc(S(=O)(=O)NC(=O)Nc2c(C(C)C)cc(F)cc2C(C)C)nn1C [Example 150, 3-(N-((4-Fluoro-2,6-diisopropylphenyl)carbamoyl)sulfamoyl)-N,1-dimethyl-1H-pyrazole-5-carboxamide] |  | 
< 400 nM | < 640 nM | CC(C)c1cccc(C(C)C)c1NC(=O)NS(=O)(=O)c1cc(C(=O)N2CCC2)n(C)n1 [Example 151, 5-(Azetidine-1-carbonyl)-N-((2,6-diisopropylphenyl)carbamoyl)-1-methyl-1H-pyrazole-3-sulfonamide] |  | 
< 800 nM | < 160 nM | CN(C(=O)c1cc(S(=O)(=O)NC(=O)Nc2c3c(cc4c2CCC4)CCC3)nn1C)C1CC1 [Example 152, N-Cyclopropyl-3-(N-((1,2,3,5,6,7-hexahydro-s-indacen-4-yl)carbamoyl)sulfamoyl)-N,1-dimethyl-1H-pyrazole-5-carboxamide] |  | 
< 1600 nM | < 640 nM | CN(CC#N)C(=O)c1cc(S(=O)(=O)NC(=O)Nc2c3c(cc4c2CCC4)CCC3)nn1C [Example 153, N-(Cyanomethyl)-3-(N-((1,2,3,5,6,7-hexahydro-s-indacen-4-yl)carbamoyl)sulfamoyl)-N,1-dimethyl-1H-pyrazole-5-carboxamide, partial ammonium salt] |  | 
< 3200 nM | < 160 nM | Cn1nc(S(=O)(=O)NC(=O)Nc2c3c(cc4c2CCC4)CCC3)cc1C(=O)N1CCC1 [Example 154, 5-(Azetidine-1-carbonyl)-N-((1,2,3,5,6,7-hexahydro-s-indacen-4-yl)carbamoyl)-1-methyl-1H-pyrazole-3-sulfonamide] |  | 
< 800 nM | < 640 nM | CNC(=O)c1cc(S(=O)(=O)NC(=O)Nc2c(C(C)C)cccc2C(C)C)nn1C [Example 155, 3-(N-((2,6-Diisopropylphenyl)carbamoyl)sulfamoyl)-N,1-dimethyl-1H-pyrazole-5-carboxamide] |  | 
< 3200 nM | < 2560 nM | CCN(C)C(=O)c1cc(S(=O)(=O)NC(=O)Nc2c(C(C)C)cccc2C(C)C)nn1C [Example 156, 3-(N-((2,6-Diisopropylphenyl)carbamoyl)sulfamoyl)-N-ethyl-N,1-dimethyl-1H-pyrazole-5-carboxamide] |  | 
< 800 nM | < 640 nM | CC(C)c1cccc(C(C)C)c1NC(=O)NS(=O)(=O)c1cc(C(=O)N(C)C(C)C)n(C)n1 [Example 158, 3-(N-((2,6-Diisopropylphenyl)carbamoyl)sulfamoyl)-N-isopropyl-N,1-dimethyl-1H-pyrazole-5-carboxamide] |  | 
< 3200 nM | < 160 nM | CC(C)N(C)C(=O)c1cc(S(=O)(=O)NC(=O)Nc2c3c(cc4c2CCC4)CCC3)nn1C [Example 164, 3-(N-((1,2,3,5,6,7-Hexahydro-s-indacen-4-yl)carbamoyl)sulfamoyl)-N-isopropyl-N,1-dimethyl-1H-pyrazole-5-carboxamide] |  | 
< 1600 nM | < 160 nM | CCN(CC)C(=O)c1cc(S(=O)(=O)NC(=O)Nc2c3c(cc4c2CCC4)CCC3)nn1C [Example 165, N,N-diethyl-3-(N-((1,2,3,5,6,7-Hexahydro-s-indacen-4-yl)carbamoyl)sulfamoyl)-1-methyl-1H-pyrazole-5-carboxamide] |  | 
< 1600 nM | < 640 nM | CN(C)Cc1c(S(=O)(=O)NC(=O)Nc2c3c(cc4c2CCC4)CCC3)ncn1C [Example 171, 5-((Dimethylamino)methyl)-N-((1,2,3,5,6,7-hexahydro-s-indacen-4-yl)carbamoyl)-1-methyl-1H-imidazole-4-sulfonamide] |  | 
 |  | CC(C)c1cc(Cl)cc(C(C)C)c1NC(=O)NS(=O)(=O)c1cc(C(=O)N(C)CCO)n(C)n1 [Example 172, 3-(N-((4-Chloro-2,6-diisopropylphenyl)carbamoyl)sulfamoyl)-N-(2-hydroxyethyl)-N,1-dimethyl-1H-pyrazole-5-carboxamide] | < 1600 nM | < 160 nM
< 400 nM | < 40 nM | COc1cc(-c2ccc3c(c2NC(=O)NS(=O)(=O)c2ccn(C(C)(C)CN(C)C)n2)CCC3)ccn1 [Example 178, 1-(1-(Dimethylamino)-2-methylpropan-2-yl)-N-((5-(2-methoxypyridin-4-yl)-2,3-dihydro-1H-inden-4-yl)carbamoyl)-1H-pyrazole-3-sulfonamide] |  | 
< 800 nM | < 160 nM | CN(C)CCn1ccc(S(=O)(=O)NC(=O)Nc2c3c(cc4c2CCC4)CC=C3)n1 [Example 181, 1-(2-(Dimethylamino)ethyl)-N-((1,2,3,7-tetrahydro-s-indacen-4-yl)carbamoyl)-1H-pyrazole-3-sulfonamide, potassium salt] |  | 
< 1600 nM | < 160 nM | CN(C)CC(C)(C)n1cc(S(=O)(=O)NC(=O)Nc2c3c(cc4c2CCC4)CCC3)cn1 [Example 183, 1-(1-(Dimethylamino)-2-methylpropan-2-yl)-N-((1,2,3,5,6,7-hexahydro-s-indacen-4-yl)carbamoyl)-1H-pyrazole-4-sulfonamide] |  | 
< 400 nM | < 160 nM | CC(C)(C#N)n1ccc(S(=O)(=O)NC(=O)Nc2c(-c3ccnc(OC(F)F)c3)ccc3c2CCO3)n1 [Example 189, 1-(2-Cyanopropan-2-yl)-N-((5-(2-(difluoromethoxy)pyridin-4-yl)-2,3-dihydrobenzofuran-4-yl)carbamoyl)-1H-pyrazole-3-sulfonamide] |  | 
< 400 nM | < 160 nM | COc1cc(-c2ccc3c(c2NC(=O)NS(=O)(=O)c2ccn(C(C)(C)C#N)n2)CCO3)ccn1 [Example 190, 1-(2-Cyanopropan-2-yl)-N-((5-(2-methoxypyridin-4-yl)-2,3-dihydrobenzofuran-4-yl)carbamoyl)-1H-pyrazole-3-sulfonamide] |  | 
< 400 nM | < 40 nM | CNCC(C)(C)n1ccc(S(=O)(=O)NC(=O)Nc2c(-c3ccnc(OC)c3)ccc3c2CCC3)n1 [Example 191, N-((5-(2-Methoxypyridin-4-yl)-2,3-dihydro-1H-inden-4-yl)carbamoyl)-1-(2-methyl-1-(methylamino)propan-2-yl)-1H-pyrazole-3-sulfonamide, sodium salt] |  | 
